Laboratory results published in PubChem BioAssay AID2060886 (Molecular Pharmacology Branch, DTP, NCI, 2025).
Where “and” joins values, the source holds several entries; their conditions need not be identical. Equal values may be shown once.

Test system: 653999-131-R-J2-PDC complex spheroids, growth inhibition
Test: Anticancer human tumor 653999-131-R-J2-PDC patient-derived lung adenocarcinoma cell line growth inhibition [RAS]
Conditions: for viability, T/C: stronger effect = lower value
From the text: RAS pathway inhibitors in Combinations in Complex Spheroids
A high-throughput screen of multi-cell type tumor spheroids was designed to identify active combinations of RAS pathway inhibitors and targeted small molecules. Complex spheroids include a stromal component modeled by human endothelial cells (HUVEC) and fibroblasts modeled by human mesenchymal stem cells (MSCs). The concentration ranges selected for each drug and investigational agent were based upon clinically achievable concentrations if the clinical Cmax of the agent was known.
Compounds. The drugs and investigational agents: abemaciclib (NSC768073), cobimetinib (NSC768068), divarasib (GDC6063, NSC841802), docetaxel (NSC628503), GDC-1971 (RLY-1971, NSC841576), gemcitabine (NSC613327), inavolisib (NSC800729), ipatasertib (NSC767898), KB-0742 (NSC834161), MRTX-1133 (NSC836407), osimertinib (NSC779217), RMC-4630 (NSC839698), RMC-6236 (NSC851965), RMC-6291 (NSC852671), Ro-3306 (NSC812927), sapanisertib (NSC764658), SN-38 (NSC673596), staurosporine (NSC755774), SY5609 (NSC837396), and tovorafenib (DAY101, NSC766906), were obtained from the National Cancer Institute (NCI) Developmental Therapeutics Program Chemical Repository. The FDA-approved anticancer drug set is available from the NCI Developmental Therapeutics Program. […] The stock solutions were prepared in dimethyl sulfoxide (DMSO, Sigma-Aldrich, St. Louis, MO, cat. D2650) at 800-fold the tested concentration and stored at -70 degrees C prior to their use. All drugs and investigational agents were tested over a range starting from a high concentration at or near the clinical Cmax and decreasing in half-log increments. If the clinical Cmax for an agent had not been determined, the highest concentration tested was 10 microM.
Cell Culture. All cells were maintained in an incubator at 37 degrees C and 5% CO2 with 95% humidity. The PDC lines were cultured according to standard operating procedures established by the NCI PDMR. All PDCs were thawed and cultured in Matrigel-coated flasks prepared with a working solution of 1X Ham's F-12 nutrient mix, without supplementation (Invitrogen, Waltham, MA, cat. 11765054), 100 U/mL penicillin-streptomycin (Invitrogen, cat. 15140122), and 2.5% Matrigel (Corning Inc., Corning, NY, cat. 354248) for the first three passages. The 362531-283-R-J2-PDC and 782815-120-R-J1-PDC lines were cultured in 6C/Colon 1B media, which includes advanced DMEM/F-12 (Thermo Fisher Scientific, cat. 12634028), 10 mM HEPES (Thermo Fisher Scientific, cat. 15630080), 1X GlutaMAX supplement (Thermo Fisher Scientific, cat. 35050061), 0.1 mg/mL primocin (InvivoGen, San Diego, CA, cat. ant-pm-2), 10% defined fetal bovine serum, heat inactivated (HyClone Laboratories Inc., Logan, UT, cat. SH30070.03HI), 50% L-WRN conditioned media (ATCC, cat. CRL-3276), 1.25 mM N-Acetyl-L-cysteine (Sigma-Aldrich, cat. A9165), 10 mM nicotinamide (Sigma-Aldrich, cat. N0636), 1X B-27 supplement (Thermo Fisher Scientific, cat. 17504044), 1X N-2 supplement (Thermo Fisher Scientific, cat. 17502048), 50 ng/mL human EGF (Thermo Fisher Scientific, cat. PHG0311), and 10 microM Y-27632 dihydrochloride (Tocris Bioscience, cat. 1254). The K12877-001-R-J1-PDC line was cultured in 6I media, which includes all 6C/Colon 1B media plus 10 ng/mL human FGF-10 (PeproTech, cat. 100-26), 1 ng/mL human FGF-2 (PeproTech, cat. 100-18B), 1 µM prostaglandin E2 (Tocris Bioscience, cat. 2296), […] hydrocortisone (Sigma-Aldrich, cat. H4001), and […] bovine insulin (Sigma-Aldrich, cat. I6634). The K86415-001-R-J1-PDC line was cultured in 6D media, which includes all 6C/Colon 1B media components minus the L-WRN conditioned media. The 485176-168-R4-J1-PDC was cultured in PANC media, which includes all 6C/Colon 1B media plus 100 ng/mL human FGF-10 (PeproTech, cat. 100-26), 500 nM SB-431542 (Selleckchem, cat. S1067), and 10 nM gastrin (Tocris Bioscience, cat. 3006). […]
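Further: spheroids exposed to the agents for seven days before the readout.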

## CC(Nc1ccc2c(c1)OCCn1cc(N3C(=O)OCC3C(F)F)nc1-2)C(N)=O (stereo unspecified) + C#Cc1c(F)ccc2cc(O)cc(-c3ncc4c(N5CC6CCC(C5)N6)nc(OCC56CCCN5CC(F)C6)nc4c3F)c12
Curve of first compound, second compound 0.0316 µM
  IC50: 0.558 µM
Curve of first compound, second compound 0.1 µM
  IC50: 0.273 µM
Curve of first compound, second compound 0.316 µM
  IC50: 0.117 µM
Curve of first compound, second compound 1 µM
  IC50: < 0.0316 µM
Curve of first compound, second compound 3.16 µM
  IC50: < 0.0316 µM
Curve of first compound, second compound 10 µM
  IC50: < 0.0316 µM
Second compound 0.0316 µM, first compound 0.0316 µM
  viability, T/C: 86.3%
Second compound 0.0316 µM, first compound 0.1 µM
  viability, T/C: 70.3%
Second compound 0.0316 µM, first compound 0.316 µM
  viability, T/C: 53.8%
Second compound 0.0316 µM, first compound 1 µM
  viability, T/C: 44.4%
Second compound 0.0316 µM, first compound 3.16 µM
  viability, T/C: 35.1%
Second compound 0.0316 µM, first compound 10 µM
  viability, T/C: 22.3%
Second compound 0.1 µM, first compound 0.0316 µM
  viability, T/C: 77.2%
Second compound 0.1 µM, first compound 0.1 µM
  viability, T/C: 66.9%
Second compound 0.1 µM, first compound 0.316 µM
  viability, T/C: 47%
Second compound 0.1 µM, first compound 1 µM
  viability, T/C: 32.3%
Second compound 0.1 µM, first compound 3.16 µM
  viability, T/C: 26.1%
Second compound 0.1 µM, first compound 10 µM
  viability, T/C: 22.6%
Second compound 0.316 µM, first compound 0.0316 µM
  viability, T/C: 63.6%
Second compound 0.316 µM, first compound 0.1 µM
  viability, T/C: 51.2%
Second compound 0.316 µM, first compound 0.316 µM
  viability, T/C: 39.5%
Second compound 0.316 µM, first compound 1 µM
  viability, T/C: 25.5%
Second compound 0.316 µM, first compound 3.16 µM
  viability, T/C: 18.9%
Second compound 0.316 µM, first compound 10 µM
  viability, T/C: 13.5%
Second compound 1 µM, first compound 0.0316 µM
  viability, T/C: 39.9%
Second compound 1 µM, first compound 0.1 µM
  viability, T/C: 35.1%
Second compound 1 µM, first compound 0.316 µM
  viability, T/C: 28.1%
Second compound 1 µM, first compound 1 µM
  viability, T/C: 23%
Second compound 1 µM, first compound 3.16 µM
  viability, T/C: 19%
Second compound 1 µM, first compound 10 µM
  viability, T/C: 11%
Second compound 3.16 µM, first compound 0.0316 µM
  viability, T/C: 30.1%
Second compound 3.16 µM, first compound 0.1 µM
  viability, T/C: 28.4%
Second compound 3.16 µM, first compound 0.316 µM
  viability, T/C: 22.9%
Second compound 3.16 µM, first compound 1 µM
  viability, T/C: 11.8%
Second compound 3.16 µM, first compound 3.16 µM
  viability, T/C: 13.9%
Second compound 3.16 µM, first compound 10 µM
  viability, T/C: 7.23%
Second compound 10 µM, first compound 0.0316 µM
  viability, T/C: 17.1%
Second compound 10 µM, first compound 0.1 µM
  viability, T/C: 14.3%
Second compound 10 µM, first compound 0.316 µM
  viability, T/C: 10.6%
Second compound 10 µM, first compound 1 µM
  viability, T/C: 8.07%
Second compound 10 µM, first compound 3.16 µM
  viability, T/C: 5.81%
Second compound 10 µM, first compound 10 µM
  viability, T/C: 4.16%

## C[C@@H](NC(=O)c1ncnc(N)c1Cl)c1ncc(C(=O)Nc2cc(C(F)(F)F)c(Cl)cn2)s1
Compound 0.0316 µM
  viability, T/C: 110% and 94.1% and 103%
Compound 0.1 µM
  viability, T/C: 99.2% and 120% and 108%
Compound 0.316 µM
  viability, T/C: 93.9% and 101% and 114%
Compound 1 µM
  viability, T/C: 91.1% and 102% and 105%
Compound 3.16 µM
  viability, T/C: 98.3% and 99.8% and 102%
Compound 10 µM
  viability, T/C: 68.6% and 79% and 75.5%
Curve of compound
  IC50: > 10 µM

## CCn1c(-c2cc(N3CCN(C)CC3)cnc2C(C)OC)c2c3cc(ccc31)-c1csc(n1)CC(NC(=O)C1CC1C)C(=O)N1CCCC(N1)C(=O)OCC(C)(C)C2 (stereo unspecified)
Compound 0.000949 µM
  viability, T/C: 80.7% [middle of 7 runs]
Compound 0.003 µM
  viability, T/C: 65.2% [middle of 7 runs]
Compound 0.00949 µM
  viability, T/C: 49.8% [middle of 7 runs]
Compound 0.03 µM
  viability, T/C: 37.4% [middle of 7 runs]
Compound 0.0949 µM
  viability, T/C: 29.4% [middle of 7 runs]
Compound 0.3 µM
  viability, T/C: 28.6% [middle of 7 runs]
Compound alone, run of 08/26/2024
  IC50: 8.13 nM [middle of 7 runs]
